Experiments:
[1] = Average particle size (ζ-Average) and PDI by dynamic light scattering (Zetasizer Nano ZSP); type: physicochemical
Procedure: The average particle size (ζ-Average) and PDI in PBS(−) of lipid nanoparticles were measured using “Zetasizer Nano ZSP”, an analyzer utilizing dynamic light scattering (manufactured by Malvern).
Measurement of average particle size and PDI of the lipid nanoparticles were carried out with the same method as the measurement of average particle size of mRNA-LNP.
The average particle size (ζ-Average) and PDI in PBS (−) of lipid nanoparticles were measured using “Zetasizer Nano ZSP”, an analyzer utilizing dynamic light scattering (manufactured by Malvern).

[2] = siRNA/mRNA encapsulation rate by Ribogreen reagent (section IV); type: physicochemical; details: for % siRNA encapsulation: F7siRNA-loaded LNP, 50:10:38.5:1.5, N/P ratio 6; for % mRNA encapsulation: FlucmRNA-loaded LNP, 50:10:38.5:1.5
Procedure: The encapsulation rates of siRNA and mRNA of lipid nanoparticles were measured with Ribogreen reagent. A solution diluted with TE buffer solution was arranged so that lipid nanoparticle concentration as nucleic acid concentration to be 8 μg/mL, as a solution for measuring nanoparticle surface nucleic acid concentration. In addition, a solution for measuring total nucleic acid concentration was arranged so that lipid nanoparticle concentration as nucleic acid concentration to be 1.2 μg/mL, which is 1% (w/w) concentration of X-triton100, by adding X-triton100. For 100 μL of each solution, 100 μL of Ribogreen (registered trademark) reagent (Quant-iT™ RiboGreen™ RNA Reagent, manufactured by Thermofisher Scientific) was mixed well in the wells of 96-well microplate (black, made of polystyrene, flat bottom, manufactured by Corning), and the fluorescence intensity at an excitation wavelength of 485 nm and a measurement wavelength of 528 nm was measured with a microplate reader. Nucleic acid concentration was calculated by calibration curve created by measuring the fluorescence intensity of nucleic acid solution containing 1% X-triton100 (nucleic acid concentration: 0-2.5 μg/mL) as same as aforementioned. Nucleic acid encapsulation rate of each lipid nanoparticle was calculated by the following formula: Encapsulation rate %=(nucleic acid concentration in solution for measuring total nucleic acid concentration (μg/mL)−nucleic acid concentration in solution for measuring nanoparticle surface nucleic acid concentration (μg/mL))/nucleic acid concentration in solution for measuring total nucleic acid concentration (μg/mL)×100. <Results>
The encapsulation rate of mRNA of lipid nanoparticles was measured using Ribogreen (manufactured by life technologies).

liver = experiment: In vivo Fluc activity of FlucmRNA-loaded LNP by in vivo imaging, liver; details: Balb/c mice, 6 hours; for Fluc Activity in liver: FlucmRNA-loaded LNP i.v. 0.1 mg mRNA/kg
Procedure: (§1) Then, each prepared FlucmRNA-loaded lipid nanoparticles were administered to Balb/c mice (Charles River Laboratories Japan, Inc., 7 weeks old, female) and in vivo gene expression activity was examined. Specifically, each FlucmRNA-loaded lipid nanoparticles were intravenously administered to Balb/c mice at 0.1 mg mRNA/kg, and Fluc activities in the liver and spleen at 6 hours later were measured. Fluc activity was measured by in vivo imaging system (Perkin Elmer, IVIS200) after administration of VivoGlo Luciferin, In Vivo Grade (Promega, P1041) dissolved with PBS to 15 mg/mL, via tail vein at a dose of 1.5 mg per mouse. The unit of Fluc activity is the emission intensity per unit area (Avg Radiance [p/s/cm2/sr]) at the maximum emission wavelength of about 560 nm. The results of measurement of the Fluc activity (Avg Radiance [p/s/cm2/sr]) in the liver and spleen of mice administered each FlucmRNA-loaded lipid nanoparticles are shown in Tables 5-7.

spleen = experiment: In vivo Fluc activity of FlucmRNA-loaded LNP by in vivo imaging, spleen; details: Balb/c mice, 6 hours; for Fluc activity in the spleen, compared with CL15F6 / Fluc activity in the spleen, compared with CL4F6: 0.1 mg mRNA/kg; for Fluc activity in the spleen, compared with CL15F6: versus LNP comprising CL15F6 (Table 7); for Fluc Activity in spleen: FlucmRNA-loaded LNP i.v. 0.1 mg mRNA/kg; for Fluc activity in the spleen, compared with CL4F6: versus LNP comprising CL4F6 (Tables 5 and 6)
Procedure: as §1

F7 = experiment: In vivo F7 knockdown, plasma F7 enzyme activity (BIOPHEN FVII), Balb/c mice; details: for F7 enzyme activity (Ratio using MC3 as 1) / F7 enzyme activity (%): i.v. 0.025 mg siRNA/kg, plasma at 24 hours; for F7 enzyme activity (Ratio using MC3 as 1): relative plasma F7 activity of MC3 LNP as 1; for F7 enzyme activity (%): untreated mice as 100%; for knockdown activity, compared with MC3: F7siRNA-loaded LNP, versus LNP comprising MC3
Procedure: Then, each prepared F7siRNA-loaded lipid nanoparticles were administered to Balb/c mice (Charles River Laboratories Japan, Inc., 5 weeks old, female) and in vivo F7 knockdown activity was examined. Specifically, BALB/c mice were intravenously administered F7siRNA-loaded lipid nanoparticles comprising the lipids described in Table 9 at 0.025 mg siRNA/kg and F7siRNA-loaded lipid nanoparticles comprising the lipids described in Tables 10 and 11 at 0.025 mg siRNA/kg, and the plasma F7 enzyme activity at 24 hours later was measured using BIOPHEN FVII (Biophen, A221304). Relative plasma F7 enzyme activity (%) of mice administered each F7siRNA-loaded lipid nanoparticles was calculated using plasma F7 enzyme activity of untreated mice as 100%. Furthermore, the ratio was calculated using the relative plasma F7 enzyme activity (%) of mice administered MC3-comprising F7siRNA-loaded lipid nanoparticles as 1. The results of measurement of CL4F6 derivative nanoparticles are shown in Tables 9 and 10, and results of measurement of CL15F6 derivative nanoparticles in Table 11.

[3] = Storage stability of FlucmRNA-loaded LNP at −80, 5, 25 and 40° C.; type: physicochemical; details: for period for which quality remained good, −80° C.: maximum storage period 1 week
Procedure: Lipid nanoparticles were allowed to stand at each temperature of −80° C., 5° C., 25° C., and 40° C., and after keeping for each period of time, average particle size, PDI, and nucleic acid encapsulation rate were measured. Lipid nanoparticles which satisfy following all three conditions were defined that the quality was remained well: the average particle size is maintained within +/−20 nm based on the date of LNP preparation; PDI remains high uniformity with a value of 0.2 or less; and the nucleic acid encapsulation rate is also maintained at 80% or more. As a result of measuring average particle size, PDI, and nucleic acid encapsulation rate after each FlucmRNA-loaded lipid nanoparticle was allowed to stand at −80° C., 5° C., 25° C., and 40° C. respectively and kept for each period of time, periods of time defined as the quality of the lipid nanoparticles was remained well are shown in Tables 13 and 14. The lipid nanoparticles which remain in good quality with standing at 5° C. for one week or more can be evaluated as having excellent stability.

[4] = F7siRNA-loaded LNP, 50:10:38.5:1.5, N/P ratio 6
[5] = FlucmRNA-loaded LNP, 50:10:38.5:1.5
[6] = FlucmRNA-loaded LNP, lipid:DSPC:cholesterol:DMG-PEG2K 50:10:38.5:1.5

| Compound | PDI [1, 4] | ζ-Average (nm) [1, 4] [nm] | PDI [1, 5] | ζ-Average (nm) [1, 6] [nm] | % siRNA encapsulation [2] [%] | % mRNA encapsulation [2] [%] | Fluc Activity in liver (liver) | Fluc activity in the spleen, compared with CL15F6 (spleen) | Fluc Activity in spleen (spleen) | F7 enzyme activity (Ratio using MC3 as 1) (F7) | quality at production (storage stability criteria) ([3]; criteria: PDI 0.2 or less, encapsulation 80% or more) | Fluc activity in the spleen, compared with CL4F6 (spleen) | F7 enzyme activity (%) (F7) | period for which quality remained good, −80° C. [3] [week] | period for which quality remained good, 5° C. ([3]; maximum storage period 5 weeks) [weeks] | period for which quality remained good, 25° C. ([3]; maximum storage period 5 weeks) [weeks] | period for which quality remained good, 40° C. (days) ([3]; maximum storage period 5 weeks) [day days] | period for which quality remained good, 40° C. (weeks) ([3]; maximum storage period 5 weeks) | Fluc activity in the liver, compared with CL15F6 (liver; 0.1 mg mRNA/kg, versus LNP comprising CL15F6 (Table 7)) | knockdown activity, compared with MC3 (F7) |
| --- | --- | --- | --- | --- | --- | --- | --- | --- | --- | --- | --- | --- | --- | --- | --- | --- | --- | --- | --- | --- |
| CCCCC(CCCC)C(=O)OCCCCCCC(O)(CCCCCCOC(=O)C(CCCC)CCCC)CCCCOC(=O)C1CCN(C)CC1 [CL15F 6-4] | 0.255 | 230.7 | 0.316 | 312.10 | 91.5 | 66.7 | 1.84E+06 Avg Radiance [p/s/cm2/sr] | higher Fluc activity | 3.39E+07 Avg Radiance [p/s/cm2/sr] | 2.28 | Does not meet the criteria for “good” at production |  |  |  |  |  |  |  |  |  |
| CCCCCCCC(CCC)C(=O)OCCCCCCC(O)(CCCCCCOC(=O)C(CCC)CCCCCCC)CCCCN(CCC)CCC (stereo not shown) [CL4F 9-3] | 0.022 | 114.40 | 0.030 | 102.80 | 99.9 | 99.6 | 2.96E+07 Avg Radiance [p/s/cm2/sr] |  | 8.17E+06 Avg Radiance [p/s/cm2/sr] |  |  | higher Fluc activity | 11.7 | 1 | 5 | 5 | 0 |  |  |  |
| CCCCCC(CCCCC)C(=O)OCCCCCCC(O)(CCCCCCOC(=O)C(CCCCC)CCCCC)CCCCN(CCC)CCC [CL4F 7-5] | 0.021 | 120.20 | 0.057 | 109.80 | 100.1 | 99.9 | 4.56E+07 Avg Radiance [p/s/cm2/sr] |  | 1.47E+07 Avg Radiance [p/s/cm2/sr] |  |  | higher Fluc activity | 35.7 | 1 | 2 | 5 |  | 1 week weeks |  |  |
| CCCCCCCCCC(CCCCCCC)C(=O)OCCCCCCC(O)(CCCCCCOC(=O)C(CCCCCCC)CCCCCCCCC)CCCCOC(=O)C1CCN(C)CC1 (stereo not shown) [CL15F 11-7] | 0.049 | 102.5 | 0.002 | 102.50 | 100.6 | 99.86 | 1.10E+07 Avg Radiance [p/s/cm2/sr] | higher Fluc activity | 7.13E+06 Avg Radiance [p/s/cm2/sr] | 0.85 |  |  |  | 1 | 5 | 5 |  | 5 weeks | higher Fluc activity | higher knockdown activity |
| CCCCCCCCCCC(CCCC)C(=O)OCCCCCCC(O)(CCCCCCOC(=O)C(CCCC)CCCCCCCCCC)CCCCOC(=O)C1CCN(C)CC1 (stereo not shown) [CL15F 12-4] | 0.065 | 113.2 | 0.009 | 116.60 | 100.2 | 99.7 | 2.87E+06 Avg Radiance [p/s/cm2/sr] |  | 5.10E+06 Avg Radiance [p/s/cm2/sr] | 0.81 |  |  |  | 1 | 5 | 5 |  | 5 weeks |  | higher knockdown activity |
| CCCCCCCCC(CCCCCCCC)C(=O)OCCCCCCC(O)(CCCCCCOC(=O)C(CCCCCCCC)CCCCCCCC)CCCCN(CCC)CCC [CL4F 10-8] | 0.007 | 91.44 | 0.021 | 81.99 | 99.9 | 99.8 | 5.14E+07 Avg Radiance [p/s/cm2/sr] |  | 8.04E+05 Avg Radiance [p/s/cm2/sr] |  |  |  | 8.1 | 1 | 5 | 5 |  | 5 weeks |  |  |

From US12458605B2, “Lipid nanoparticle” (National University Corporation Hokkaido University, priority 2020, dated 2025)
